Laboratory results from US7915050B2, “Regulatory genes for plant differentiation and growth, and use of the same” (National University Corporation Nagoya University, priority 2005, dated 2011).
pIC50: −log10 of the molar value. Where two headings read alike, the source gives them in different places.

Tests used:
[1] = target: T1, GID1 (Oryza sativa subsp. japonica, UniProt Q6L545); assay: Competition of various GAs in the binding of the 3H-GA4 derivative to GID1 protein; parameters: species or system rice; details: for pIC50: competition with tritiated GA4 derivative for binding to recombinant GID1, read-out: IC50 (concentration required for 50% inhibition); for Rel % (relative value): relative competition, GA4 given as 100
T1 construct: GST (tag of vector pGEX-4T) (N); made in house
T1 sequence (Q6L545 whole entry): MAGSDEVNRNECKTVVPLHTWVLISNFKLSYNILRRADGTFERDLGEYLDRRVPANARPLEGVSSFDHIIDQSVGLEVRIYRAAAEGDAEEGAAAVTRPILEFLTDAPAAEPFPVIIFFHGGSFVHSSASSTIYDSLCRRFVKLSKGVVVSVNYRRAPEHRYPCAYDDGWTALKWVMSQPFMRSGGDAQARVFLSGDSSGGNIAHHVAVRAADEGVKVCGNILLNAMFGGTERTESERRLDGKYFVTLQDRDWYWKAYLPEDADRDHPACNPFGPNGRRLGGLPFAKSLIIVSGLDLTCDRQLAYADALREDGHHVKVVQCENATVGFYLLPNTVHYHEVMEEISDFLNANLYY
Description: (§1) In the gibberellin-binding assay, [1,2,16,17-^3H4]16,17-dihydro-GA4 was used as a labeled GA4. In vitro GA-binding assays were carried out using previous methods with some modifications (Nakajima, M. et al., Biochem. Biophys. Res. Comm. 241, 782-786 (1997)). The purified recombinant GID1 protein (400 pmol) was dissolved in 300 μl of binding buffer [20 mM Tris-HCl (pH 7.6), 5 mM 2-mercaptoethanol, and 0.1 M NaCl], and incubated with 100 μl of ^3H4-16,17-dihydroGA4 (6 pmol) for two hours at 25° C., either in the absence of non-labeled GA4 (total binding) or in the presence of 833-fold excess non-labeled GA4 (total non-specific binding). Then, 0.1 ml of the reaction mixture was loaded onto a NAP-5 column (Amersham Biosciences, Piscataway, N.J.). The eluate of the binding buffer (0.6 ml) was discarded, the subsequent eluate (0.2 ml) was collected, and the radioactivity was measured. The specific binding activity, reflecting the number of displaceable GA binding sites, was calculated by subtracting the amount of nonspecific binding from the amount of total binding. The same as above can also be carried out for other GAs.
Thus, it was postulated that, like GID2, GID1 is involved in the degradation of SLR1, or that GID1 functions upstream of SLR1 in GA signaling. […] Based on this phenotypic characteristic of gid1, it was predicted that GID1 was involved in GA perception. To verify this possibility, the interactions between GID1 and radioisotope-labeled GA was directly examined using non-equilibrium gel filtration (Nakajima, M. et al., Biochem. Biophys. Res. Comm. 241, 782-786 (1997)). […] Next, ligand specificity of GID1 was tested by using competition between the tritiated GA4 derivative and various GAs. The concentration of each GA that is required for a 50% inhibition (IC50) of the binding of the tritiated GA4 derivative to GID1 is shown in Table 1. […] The IC50 value for each of these GAs was well consistent with their physiological activity.

[2] = target: T2, AtGID1a (Arabidopsis thaliana, UniProt Q9MAA7); assay: Competitive ability of GA in AtGID1-GA binding (AtGID1a); details: for pIC50: tracer 15 nM, mean of at least two measurements
T2 construct: made in house; host or cells: E. coli
T2 sequence (Q9MAA7 1-345): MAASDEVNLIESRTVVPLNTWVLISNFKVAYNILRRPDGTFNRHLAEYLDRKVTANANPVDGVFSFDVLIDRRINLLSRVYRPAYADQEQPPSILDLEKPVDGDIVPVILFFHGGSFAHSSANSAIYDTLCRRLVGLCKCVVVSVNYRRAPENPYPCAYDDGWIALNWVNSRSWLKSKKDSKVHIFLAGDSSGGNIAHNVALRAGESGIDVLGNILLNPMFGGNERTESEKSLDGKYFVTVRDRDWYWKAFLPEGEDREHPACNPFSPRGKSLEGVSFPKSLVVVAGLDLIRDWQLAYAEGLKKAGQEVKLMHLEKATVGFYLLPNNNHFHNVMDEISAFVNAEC
Description: as §1
(§2) Specifically, the coding region of the AtGID1 gene was amplified by PCR using specific primers designed based on the full-length cDNA sequence of the AtGID1 gene and having appropriate restriction sites at each end. After confirmation by sequence analysis, each cDNA fragment was ligated into pET32a vector (Novagen/Merck Biosciences, Madison, Wis., USA) or pGEX-4T-2 vector (Amersham Biosciences, Piscataway, N.J., USA; currently, a part of GE Healthcare). The production of recombinant proteins was confirmed by SDS-PAGE; vector cassettes were used as negative controls. GA binding assays were carried out similarly as described above using [1,2,16,17-^3H4]-16,17-dihydro-GA4 (4.55 TBq/mmol), which was custom-made by DuPont/NEN (Boston, Mass., USA). Non-labeled GA4 (1.25 mM) was used to measure non-specific binding. Saturation experiments for the kinetic analysis were carried out using ten concentrations of 16,17-dihydro-GA4 within the range of 25 to 1,500 nM. Competition assays were performed using [1,2,16,17-^3H4]-16,17-dihydro-GA4 at 15 nM and five concentrations of the non-labeled competitor. Recombinant RGA and GAI proteins were prepared using pET32a by a previously described method.
(§3) The ligand selectivity of each AtGID1 was examined by observing the competitive inhibition, by the addition of GA to the assay mixtures, of the binding between the recombinant proteins and tritiated 16,17-dihydro-GA4 (Table 2). The ligand selectivity was evaluated using the concentration of GA that inhibits 50% of the tracer (15 nM) binding (IC50 value).

[3] = target: T3, AtGID1b (Arabidopsis thaliana, UniProt Q9LYC1); assay: Competitive ability of GA in AtGID1-GA binding (AtGID1b); details: for pIC50: tracer 15 nM, mean of at least two measurements
T3 construct: made in house; host or cells: E. coli
T3 sequence (Q9LYC1 1-358): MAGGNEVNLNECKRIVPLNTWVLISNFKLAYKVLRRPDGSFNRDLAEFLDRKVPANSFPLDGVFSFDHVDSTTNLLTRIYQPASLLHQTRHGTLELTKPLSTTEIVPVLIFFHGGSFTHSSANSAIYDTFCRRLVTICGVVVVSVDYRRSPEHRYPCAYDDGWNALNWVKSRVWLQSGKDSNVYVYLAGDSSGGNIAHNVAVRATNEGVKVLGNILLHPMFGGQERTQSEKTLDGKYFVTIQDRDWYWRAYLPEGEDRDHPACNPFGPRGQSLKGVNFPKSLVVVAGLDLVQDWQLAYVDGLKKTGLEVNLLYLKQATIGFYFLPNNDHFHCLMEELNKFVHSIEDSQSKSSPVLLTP
Description: as §1, §2, §3

[4] = target: T4, AtGID1c (Arabidopsis thaliana, UniProt Q940G6); assay: Competitive ability of GA in AtGID1-GA binding (AtGID1c); details: for pIC50: tracer 15 nM, mean of at least two measurements
T4 construct: made in house; host or cells: E. coli
T4 sequence (Q940G6 1-344): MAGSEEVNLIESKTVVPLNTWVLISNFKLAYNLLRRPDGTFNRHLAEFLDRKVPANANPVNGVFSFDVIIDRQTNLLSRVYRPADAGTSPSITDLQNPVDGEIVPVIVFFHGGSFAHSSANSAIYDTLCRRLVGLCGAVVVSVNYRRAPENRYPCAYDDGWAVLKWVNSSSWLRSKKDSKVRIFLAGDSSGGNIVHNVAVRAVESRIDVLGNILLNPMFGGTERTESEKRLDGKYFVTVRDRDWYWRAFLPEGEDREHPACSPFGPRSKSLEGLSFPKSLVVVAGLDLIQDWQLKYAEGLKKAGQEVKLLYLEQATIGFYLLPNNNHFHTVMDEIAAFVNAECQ
Description: as §1, §2, §3

[5] = target: T1, GID1; assay: Saturation/Scatchard and association/dissociation analysis of GA binding to recombinant GID1; parameters: species or system rice
Description: Panel a) depicts the saturability for the GA binding of GID1. […] Bar represents the standard deviation (n=3). Panel b) depicts the results of a Scatchard plot for the data of binding shown in a. The Kd value was calculated (correlation coefficient R^2=0.96) from t three independent experimental results. Panel c) depicts the ^3H-GA association/dissociation rate to GID1. […] Bar represents the standard deviation (n=3). […] Upper panel, none of three recombinant proteins of mutant GID1s (GID1-1, 1-2, and 1-3) corresponding to the three gid1 alleles interacted with GA4. […] Bar represents the standard deviation (n=3). Bottom panel, Coomassie brilliant blue stain of the recombinant proteins used in this experiment. Dot represents GID or tag proteins in the SDS-PAGE profile. In this experiment, almost equal amounts of proteins were used for each (80 pmol). Panel e) depicts the gross morphologies of a GID1-overexpressing plant (Actin1 promoter-GID1, right) and wild type plant (control, left) three months after seeding. Bar=50 cm. f) dose-dependent GA response in the elongation of the second leaf sheath of GID1overexpressing plant (closed triangle) and wild type (closed circle). Bar represents the standard deviation (n=5).
In the gibberellin-binding assay, [1,2,16,17-^3H4]16,17-dihydro-GA4 was used as a labeled GA4. In vitro GA-binding assays were carried out using previous methods with some modifications (Nakajima, M. et al., Biochem. Biophys. Res. Comm. 241, 782-786 (1997)). […] The eluate of the binding buffer (0.6 ml) was discarded, the subsequent eluate (0.2 ml) was collected, and the radioactivity was measured. The specific binding activity, reflecting the number of displaceable GA binding sites, was calculated by subtracting the amount of nonspecific binding from the amount of total binding. […]
Next, the kinetics of the binding of GID1 to GA was analyzed. To calculate the Kd value of GID1 to GA, the saturability of GA binding was measured using various concentrations of GA4 derivative (FIG. 4a). […]

3-epi-GA4
pIC50 [1]: < 3.70 | Rel % (relative value) [1]: (<0.1) % | relative value, taking the value for GA4 as 100 [2]: (<0.1) % | pIC50 [2]: < 3.52 | relative value, taking the value for GA4 as 100 [3]: (<0.1) % | pIC50 [3]: 4.00 | relative value, taking the value for GA4 as 100 [4]: (<0.1) % | pIC50 [4]: < 3.52

[1,2,16,17-^3H4]16,17-dihydro-GA4 [^3H4-16,17-dihydroGA4]
half-time required for association/dissociation [5]: within several minutes | half-time required for association/dissociation ([5]; listed as GA4 derivative): several minutes or less

methyl ester of GA4 [GA4-Me]
pIC50 [1]: 4.52 | Rel % (relative value) [1]: (0.6) % | relative value, taking the value for GA4 as 100 [2]: (0.1) % | pIC50 [2]: 3.52 | relative value, taking the value for GA4 as 100 [3]: (0.3) % | pIC50 [3]: 5.05 | relative value, taking the value for GA4 as 100 [4]: (0.3) % | pIC50 [4]: 4.05
